Measured values taken from patent EP0557936A1, “Amidic derivatives of (R)-glycerophosphoryl-(S)-serine or of its diacyl derivative, process for their preparation and relative pharmaceutical compositions for the improvement of the learning processes” (MAGIS FARMACEUTICI S.p.A., priority 1992, dated 1993).

Tests used:
[1] = tested on: scopolamine induced amnesy; test: passive avoidance test, scopolamine induced amnesia (intraperitoneal administration); assay type: in vivo, rat; details: scopolamine 1 mg/kg; for Avoid. time (sec.) After 24 h: re-test after 24 h, end-point 300 second
Method: (§1) The antiamnesic activity was tested by means of the classical passive avoidance test, with respect to the amnesy induced in the rat, by administration of scopolamine, or by means of electroconvulsive shock (ECS).For both the tests a shuttle-box was used of the Ugo Basile Company (Comerio, Varese), consisting of two compartments, one of which compartments was clear and the other one dark and fitted with an electrifiable floor.
(§2) In order to induce a passive avoidance response, the animal was placed onto a runner of the clear compartment, enlightened by a 60 watt lamp, for a 1 minute acclimatisation, whereafter a bulkhead was opened putting the runner in communication with the dark compartment, which the animal istinctively entered after a latency of a few seconds. The bulkhead was immediately shut and the animal got a 0.21 mA current for 2 second through the electrifiable floor. The animal was then removed and newly subjected to the test 24 h later, in order to verify the retention level of the acquired response of passive avoidance, measuring the latency required by the entry into the electrifiable compartment, with an end-point of 300 second.
(§3) All the tests were carried out under conditions of stratified randomization, using in each test session the same number of animals for the different experimental groups tested in parallel, and comprising, besides the groups treated with the product under test (test substances and reference substances having known activity), two separate groups of controls and precisely: blank controls (animals treated with placebo) and deconditioned controls (animals treated with placebo and subjected to amnesic treatment by means of scopolamine or of ECS).
(§4) The results obtained with the different dosages of the products subjected to screening and with the corresponding reference standards having a known activity, namely N(S)-3-(formyl-amino)-epsilon-caprolactam, N(4-phenylbutanoyl-hydroxy)prolyl-pyrrolidine and glycerophosphoryl-serine, were expressed as a percentage of antagonism of the amnesy (AA), defined according to the following formula: [formula] wherein the index of comparison IC, concerning treated animals (t) and blank controls (b), is defined by the formula: [formula] wherein: Nm = number of animals belonging to group m (blanks or treated animals); Nn = number of animals belonging to group n (deconditioned animals); Amn = binary function which can assume only the values +1, zero or - 1, depending on the fact that the latency time (seconds) of an animal of the m group (xm) be respectively higher than, equal to or lower than the latency time (seconds) of an animal of the n group (xn).
(§5) The summation Σ Amn i extended to all the pairs obtained combining each xm term with each xn term.
(§6) Normally the comparison index (IC) between blank controls and deconditioned controls is between 60% and 80% and the test was discarded when such index resulted to be lower than 40%.
The utilized rats were male C.r.l.: CD (50) BR (Charles River Italia), showing a weight of 150-170 g, after an acclimatisation time of a week, under standard conditions.
The animals got the products to be tested by intraperitoneal way and scopolamine bromhydrate (1 mg/kg) by subcutaneous way, respectively 45 and 30 minutes before being subjected to the previously described avoidance test.
As to the standard substances [GFS, N(S)-3-(formylamino)-epsilon-caprolactam and N(4-phenylbutanoylhydroxy)prolyl-pyrrolidine], the used dosage was 4x10⁻² mmol/kg, whereas for the products to be tested the used dosage was between 1x10⁻² and 12x10⁻² mmol/kg, with an intermediate dosage equimolar with respect to the one of the standards.

[2] = tested on: ECS engendered amnesy; test: passive avoidance test, electroconvulsive shock (ECS) induced amnesia; assay type: in vivo, rat; details: groups of 10
Method: as §1, §2, §3, §4, §5, §6
The animals got the products to be tested 30 minute before undergoing the previously described avoidance test.
In this series of experimental works the deconditioning treatment consists of an electroshock (square wave of 45 m, amplitude 0.6 ms, time 2 s and frequency 40 Hz), delivered by means of auricular electrodes, connected to an electrostimulator ECT/UNIT of the Ugo Basile Company (Comerio, Varese).
The used dosages were 8x10⁻² mmol/kg for the standard substances, therefore higher than the ones used in the preceeding test and this depends on a lower activity of the standard substances, previously ascertained in this test, in our experimental conditions.
The dosages of the products to be tested were correlatively comprised between 2x10⁻² and 24x10⁻² mmol/kg, with an intermediate dosage equimolar (8x10⁻² mmol/kg) with respect to the ones of the standard substances.

[3] = dose 8 x 10^-2 mmoli/kg i.p. 30' before the acquisition trial
[4] = dose 12 x 10^-2 mmoli/kg i.p. 30' before the acquisition trial
[5] = dose 4 x 10^-2 mmoli/kg i.p. 30' before the acquisition trial
[6] = dose 16 x 10^-2 mmoli/kg i.p. 30' before the acquisition trial

| Compound | No.of amnesic rats/No. of rats tested ([1]; dose 4.10^-2 mmoli/kg i.p.) | Percent amnesia ([1]; dose 4.10^-2 mmoli/kg i.p.) | Avoid. time (sec.) After 24 h ([1]; dose 4.10^-2 mmoli/kg i.p.) | Time taken to enter chamber (min) [2, 3] | Time taken to enter chamber (min) [2, 4] | Time taken to enter chamber (min) ([2]; dose 24 x 10^-2 mmoli/kg i.p. 30' before the acquisition trial) | No.of amnesic rats/No. of rats tested ([1]; dose 8.10^-2 mmoli/kg i.p.) | Percent amnesia ([1]; dose 8.10^-2 mmoli/kg i.p.) | Avoid. time (sec.) After 24 h ([1]; dose 8.10^-2 mmoli/kg i.p.) | No.of amnesic rats/No. of rats tested ([1]; dose 12.10^-2 mmoli/kg i.p.) | Percent amnesia ([1]; dose 12.10^-2 mmoli/kg i.p.) | Avoid. time (sec.) After 24 h ([1]; dose 12.10^-2 mmoli/kg i.p.) | Time taken to enter chamber (min) [2, 5] | Time taken to enter chamber (min) [2, 6] |
| --- | --- | --- | --- | --- | --- | --- | --- | --- | --- | --- | --- | --- | --- | --- |
| N[C@@H](COP(=O)(O)OC[C@H](O)CO)C(=O)O [GFS, glycerophosphoryl-serine, reference compound] | 4/10 | 40% | 126,5 sec. | 0,236 min |  |  |  |  |  |  |  |  |  |  |
| N(4-phenylbutanoyl-hydroxy)prolyl-pyrrolidine [Phenyl-butirryl prolyl-pirrolidine, reference compound] | 4/10 | 40% | 101,7 sec. | 0,213 min |  |  |  |  |  |  |  |  |  |  |
| O=CN[C@H]1CCCCNC1=O [N-Formylamino ε -caprolactame, N(S)-3-(formyl-amino)-epsilon-caprolactam, reference compound] | 4/10 | 40% | 72,5 sec. | 0,131 min |  |  |  |  |  |  |  |  |  |  |
| N[C@@H](COP(=O)(O)OC[C@H](O)CO)C(=O)N[C@H]1CCCCNC1=O [MGS 4] |  |  |  | 0,466 min | 1,316 min | 1,883 min |  |  |  |  |  |  |  |  |
| COC(=O)CN1CCCC[C@H](NC(=O)[C@@H](N)COP(=O)(O)OC[C@H](O)CO)C1=O [MGS 2] | 2/10 | 20% | 270 s | 1,418 min | 2,072 min |  | 0/10 | 0% | 300 s | 0/10 | 0% | 300 s | 0,557 min | 1,777 min |
| COC(=O)CN1CCCC[C@H](NC(=O)[C@@H](N)COP(=O)(O)OC[C@@H](COC(C)=O)OC(C)=O)C1=O [MGS 1] | 2/10 | 20% | 243,5 sec. | 1,378 min | 1,916 min |  | 1/10 | 10% | 266,6 sec. | 0/10 | 0% | 300 s | 0,664 min | 1,615 min |
